Test results reported in ChEMBL document CHEMBL4339189, “Dissymmetric pyridyl-substituted 3,5-bis(arylidene)-4-piperidones as anti-hepatoma agents by inhibiting NF-κB pathway activation” (Eur J Med Chem, 2019).
The source made the active and inactive calls. The rule behind the calls is not given here.

Assays:
[1] = tested on: RAW264.7; assay: Antiinflammatory activity in mouse RAW264.7 cells assessed as inhibition of LPS-stimulated IL-6 production 6.0 uM preincubated for 2 hrs followed by LPS stimulaton measured after 22 hrs by ELISA relative to control; assay type: functional
[2] = tested on: HepG2; assay: Cytotoxicity against human HepG2 cells assessed as reduction in cell viability incubated for 24 hrs by MTT assay; assay type: functional, cell-based; details: HepG2, 24 h
[3] = tested on: L02; assay: Cytotoxicity against human LO2 cells assessed as reduction in cell viability incubated for 24 hrs by MTT assay; assay type: cell-based; details: L02, 24 h
[4] = tested on: QGY-7703; assay: Cytotoxicity against human QGY7703 cells assessed as reduction in cell viability incubated for 24 hrs by MTT assay; assay type: functional, cell-based; details: QGY-7703, 24 h
[5] = tested on: RAW264.7; assay: Antiinflammatory activity in mouse RAW264.7 cells assessed as inhibition of LPS-stimulated TNF-alpha production at 6.0 uM preincubated for 2 hrs followed by LPS stimulaton measured after 22 hrs by ELISA relative to control; assay type: functional
[6] = Cytotoxicity against human HHL5 cells assessed as reduction in cell viability incubated for 24 hrs by MTT assay; assay type: cell-based; details: HHL-5, 24 h
[7] = tested on: SMMC-7721; assay: Cytotoxicity against human SMMC7721 cells assessed as reduction in cell viability incubated for 24 hrs by MTT assay; assay type: functional, cell-based; details: SMMC-7721, 24 h
[8] = tested on: RAW264.7; assay: Cytotoxicity against mouse RAW264.7 cells assessed as reduction in cell viability at 6.0 uM incubated for 24 hrs by MTT assay; assay type: cell-based; details: raw264.7, 24 h

Structure (SMILES)	inhibition [1]	IC50 [2]	IC50 [3]	IC50 [4]	inhibition [5]	IC50 [6]	IC50 [7]	Activity [8]
O=C1/C(=C/c2ccncc2)CNC/C1=C\c1ccccc1F	inactive	8.2 µM	14.7 µM	14.2 µM	inactive	13.9 µM	18.4 µM	Non-Toxic
CN1C/C(=C\c2cccnc2)C(=O)/C(=C/c2ccc(F)cc2Br)C1	Active	13 µM	14.4 µM	2.61 µM	Active	11.3 µM	20.8 µM	Non-Toxic
O=C1/C(=C/c2ccncc2)CN(S(=O)(=O)c2ccc([N+](=O)[O-])cc2)C/C1=C\c1ccccc1F	inactive	11.3 µM	18.4 µM	8.8 µM	inactive	16 µM	15.8 µM	Non-Toxic
CC(=O)Nc1ccc(S(=O)(=O)N2C/C(=C\c3ccncc3)C(=O)/C(=C/c3ccccc3F)C2)cc1	inactive	11.7 µM	12.3 µM	13.7 µM	inactive	14.2 µM	13.4 µM	Non-Toxic
N#Cc1ccc(S(=O)(=O)N2C/C(=C\c3cccnc3)C(=O)/C(=C/c3ccccc3F)C2)cc1	inactive	6.6 µM	> 20 µM	15.8 µM	inactive	15.5 µM	15.4 µM	Non-Toxic
O=C1/C(=C/c2cccnc2)CN(S(=O)(=O)c2ccc(Br)cc2)C/C1=C\c1ccccc1F	inactive	8.7 µM	14.6 µM	12.8 µM	inactive	14.2 µM	9.1 µM	Non-Toxic
CN1C/C(=C\c2ccc(C#N)cc2)C(=O)/C(=C/c2cccnc2)C1	Active	12.7 µM	> 20 µM	> 20 µM	Active	> 20 µM	13.6 µM	Non-Toxic
O=C1/C(=C/c2cccnc2)CN(S(=O)(=O)c2ccc(Br)cc2)C/C1=C\c1ccccc1C(F)(F)F	Active	2.73 µM	13.3 µM	5.51 µM	Active	15.5 µM	5.76 µM	Non-Toxic
CN1C/C(=C\c2ccncc2)C(=O)/C(=C/c2ccc(F)cc2Br)C1	Active	9.2 µM	12.4 µM	6.9 µM	Active	11.6 µM	23.8 µM	Non-Toxic
COc1cc(/C=C2\CN(C)C/C(=C\c3ccncc3)C2=O)cc(OC)c1	Active	9.5 µM	13.4 µM	8.4 µM	Active	11.1 µM	5.81 µM	Non-Toxic
COc1cc(/C=C2\CN(C)C/C(=C\c3ccncc3)C2=O)cc(OC)c1OC	Active	9.8 µM	16.4 µM	5.9 µM	Active	12.3 µM	9.13 µM	Non-Toxic
O=C1/C(=C/c2cccnc2)CNC/C1=C\c1ccccc1F	inactive	21 µM	15.9 µM	8.89 µM	inactive	14.6 µM	> 20 µM	Non-Toxic
COc1cc(/C=C2\CN(C)C/C(=C\c3cccnc3)C2=O)cc(OC)c1OC	Active	9.52 µM	14.4 µM	4.3 µM	Active	11.3 µM	20.4 µM	Non-Toxic
CN1C/C(=C\c2cccnc2)C(=O)/C(=C/c2cc([N+](=O)[O-])ccc2F)C1	Active	6.63 µM	15.7 µM	11.1 µM	Active	14.2 µM	6.17 µM	Non-Toxic
O=C1/C(=C/c2ccncc2)CN(S(=O)(=O)c2ccc(Cl)cc2)C/C1=C\c1ccccc1C(F)(F)F	–	7.19 µM	14.9 µM	12.7 µM	–	11 µM	5.51 µM	Non-Toxic
COc1cc(/C=C2\CN(C)C/C(=C\c3cccnc3)C2=O)cc(OC)c1	Active	6.91 µM	18.4 µM	7.9 µM	Active	> 20 µM	17.9 µM	Non-Toxic
COc1cc(/C=C/C(=O)CC(=O)/C=C/c2ccc(O)c(OC)c2)ccc1O [CURCUMIN]	–	17.4 µM	22.7 µM	23.9 µM	–	24.2 µM	16.7 µM	–
CC(=O)Nc1ccc(S(=O)(=O)N2C/C(=C\c3ccncc3)C(=O)/C(=C/c3ccccc3C(F)(F)F)C2)cc1	–	4.84 µM	10.1 µM	5.56 µM	–	8.87 µM	5.76 µM	Non-Toxic
O=C1/C(=C/c2ccncc2)CN(S(=O)(=O)c2ccc(F)cc2)C/C1=C\c1ccccc1C(F)(F)F	–	4.01 µM	12.9 µM	7.7 µM	–	12 µM	9.27 µM	Non-Toxic
S=C(S)N1CCCC1	Active	–	–	–	Active	–	–	–
O=C1/C(=C/c2ccccc2F)CNC/C1=C\c1ccccc1F	–	3.33 µM	10.2 µM	4.97 µM	–	14.5 µM	8.8 µM	–
O=C1/C(=C/c2ccncc2)CN(S(=O)(=O)c2ccc(C(F)(F)F)cc2)C/C1=C\c1ccccc1C(F)(F)F	–	3.24 µM	13.8 µM	4.68 µM	–	11.7 µM	3.84 µM	Non-Toxic
O=C1/C(=C/c2ccncc2)CN(S(=O)(=O)c2ccccc2)C/C1=C\c1ccccc1C(F)(F)F	–	7.02 µM	12.3 µM	6.21 µM	–	12.1 µM	6.54 µM	Non-Toxic
Cc1ccc(S(=O)(=O)N2C/C(=C\c3ccncc3)C(=O)/C(=C/c3ccccc3C(F)(F)F)C2)cc1	–	4.64 µM	12.8 µM	5.09 µM	–	15.9 µM	5.59 µM	Non-Toxic
O=C1/C(=C/c2ccncc2)CN(S(=O)(=O)c2ccc([N+](=O)[O-])cc2)C/C1=C\c1ccccc1C(F)(F)F	–	13.4 µM	18.6 µM	9.73 µM	–	> 20 µM	> 20 µM	Non-Toxic
O=C1/C(=C/c2ccncc2)CN(S(=O)(=O)c2ccc(Br)cc2)C/C1=C\c1ccccc1C(F)(F)F	–	14.5 µM	12.6 µM	7.06 µM	–	9.32 µM	10.5 µM	Non-Toxic
N#Cc1ccc(S(=O)(=O)N2C/C(=C\c3ccncc3)C(=O)/C(=C/c3ccccc3C(F)(F)F)C2)cc1	–	5.92 µM	17.6 µM	6.29 µM	–	19.7 µM	9.61 µM	Non-Toxic
